# In patent US20230017045A1, “PYRIDINE AND PYRIMIDINE CARBOXYLATE HERBICIDES AND METHODS OF USE THEREOF” (Dow AgroSciences LLC, priority 2017, published 2023):
# System: test plant species
# Test: Post-emergent herbicidal activity test (greenhouse, foliar spray, visual growth reduction)
# Format: in vivo
# Conditions: post-emergence, 336 h, ECHCG: barnyardgrass (Echinochloa crus-galli), 140 g ai/ha, 14 days after application, read-out: Visual Growth Reduction (%) 14 Days After Application, ECHCG
# Experimental: Post-emergent Test: Seeds or nutlets of the desired test plant species were planted in Sun Gro Metro-Mix® 360 planting mixture, which typically has a pH of 6.0 to 6.8 and an organic matter content of about 30 percent, in plastic pots with a surface area of 64 square centimeters. In some aspects, to ensure good germination and healthy plants, a fungicide treatment and/or other chemical or physical treatment was applied. The plants were grown for 7-21 d in a greenhouse with an approximate 15 h photoperiod which was maintained at 23-29° C. during the day and 22-28° C. during the night. Nutrients and water were added on a regular basis and supplemental lighting was provided with overhead metal halide 1000-Watt lamps as necessary. Plants were used for testing when they reached the first or second true leaf stage. A weighed amount, determined by the highest rate to be tested, of each test compound was placed in a 25 mL glass vial and was dissolved in 4 mL of a 97:3 v/v mixture of acetone and DMSO to obtain concentrated stock solutions. […] The concentrated stock solutions obtained were diluted with 20 mL of an aqueous mixture containing acetone, water, isopropyl alcohol, DMSO, […] crop oil concentrate, and X-77 surfactant in a 48.5:39:10:1.5:1.0:0.02 v/v ratio to obtain spray solutions containing the application rate. Compound requirements are based upon a 12 mL application volume at a rate of 187 liters per hectare (L/ha). Formulated compounds were applied to the plant material with an overhead Mandel track sprayer equipped with […] nozzles calibrated to deliver 187 L/ha over an application area of 0.64 square meters at a spray height of 18 inches (43 cm) above the average plant canopy height. Control plants were sprayed in the same manner with the solvent blank. The treated plants and control plants were placed in a greenhouse as described above and watered by subirrigation to prevent wash-off of the test compounds. After 14 d, the condition of the test plants as compared with that of the nontreated and control plants was determined visually and scored on a scale of 0 to 100 percent where 0 corresponds to no injury and 100 corresponds to complete control. In the reporting of the results, Table A: Percent Growth Reduction Conversion Table was used.
row,Structure (SMILES),pest or weed control at 140 g/ha [%]
1,"COC(=O)c1nc(-c2cc(C#N)c(C(F)(F)F)cc2Cl)c(F)cc1Cl [F321, Methyl 3-chloro-6-(2-chloro-5-cyano-4-(trifluoromethyl)phenyl)-5-fluoropicolinate]",30 to 44
2,"COC(=O)c1nc(-c2ccc(C(F)(F)F)c(F)c2F)c(F)cc1Cl [F310, Methyl 3-chloro-6-(2,3-difluoro-4-(trifluoromethyl)phenyl)-5-fluoropicolinate]",60 to 74

# Same assay, conditions: post-emergence, 336 h, IPOHE: ivy-leaf morning glory (Ipomoea hederacea), 140 g ai/ha, 14 days after application, read-out: Visual Growth Reduction (%) 14 Days After Application, IPOHE
row,Structure (SMILES),pest or weed control at 140 g/ha [%]
1,"COC(=O)c1nc(-c2cc(C#N)c(C(F)(F)F)cc2Cl)c(F)cc1Cl [F321, Methyl 3-chloro-6-(2-chloro-5-cyano-4-(trifluoromethyl)phenyl)-5-fluoropicolinate]",85 to 94
2,"COC(=O)c1nc(-c2ccc(C(F)(F)F)c(F)c2F)c(F)cc1Cl [F310, Methyl 3-chloro-6-(2,3-difluoro-4-(trifluoromethyl)phenyl)-5-fluoropicolinate]",95 to 100

# Same assay, conditions: post-emergence, 336 h, KCHSC: kochia (Bassia scoparia), 140 g ai/ha, 14 days after application, read-out: Visual Growth Reduction (%) 14 Days After Application, KCHSC
row,Structure (SMILES),pest or weed control at 140 g/ha [%]
1,"COC(=O)c1nc(-c2cc(C#N)c(C(F)(F)F)cc2Cl)c(F)cc1Cl [F321, Methyl 3-chloro-6-(2-chloro-5-cyano-4-(trifluoromethyl)phenyl)-5-fluoropicolinate]",0 to 29
2,"COC(=O)c1nc(-c2ccc(C(F)(F)F)c(F)c2F)c(F)cc1Cl [F310, Methyl 3-chloro-6-(2,3-difluoro-4-(trifluoromethyl)phenyl)-5-fluoropicolinate]",45 to 59

# Same assay, conditions: post-emergence, 336 h, ORYSA: rice (Oryza sativa), 140 g ai/ha, 14 days after application, read-out: Visual Growth Reduction (%) 14 Days After Application, ORYSA
row,Structure (SMILES),pest or weed control at 140 g/ha [%]
1,"COC(=O)c1nc(-c2cc(C#N)c(C(F)(F)F)cc2Cl)c(F)cc1Cl [F321, Methyl 3-chloro-6-(2-chloro-5-cyano-4-(trifluoromethyl)phenyl)-5-fluoropicolinate]",0 to 29
2,"COC(=O)c1nc(-c2ccc(C(F)(F)F)c(F)c2F)c(F)cc1Cl [F310, Methyl 3-chloro-6-(2,3-difluoro-4-(trifluoromethyl)phenyl)-5-fluoropicolinate]",0 to 29

# Same assay, conditions: post-emergence, 336 h, SETFA: giant foxtail (Setaria faberi), 140 g ai/ha, 14 days after application, read-out: Visual Growth Reduction (%) 14 Days After Application, SETFA
row,Structure (SMILES),pest or weed control at 140 g/ha [%]
1,"COC(=O)c1nc(-c2cc(C#N)c(C(F)(F)F)cc2Cl)c(F)cc1Cl [F321, Methyl 3-chloro-6-(2-chloro-5-cyano-4-(trifluoromethyl)phenyl)-5-fluoropicolinate]",75 to 84
2,"COC(=O)c1nc(-c2ccc(C(F)(F)F)c(F)c2F)c(F)cc1Cl [F310, Methyl 3-chloro-6-(2,3-difluoro-4-(trifluoromethyl)phenyl)-5-fluoropicolinate]",85 to 94

# Same assay, conditions: post-emergence, 336 h, SORVU: grain sorghum (Sorghum vulgare), 140 g ai/ha, 14 days after application, read-out: Visual Growth Reduction (%) 14 Days After Application, SORVU
row,Structure (SMILES),pest or weed control at 140 g/ha [%]
1,"COC(=O)c1nc(-c2cc(C#N)c(C(F)(F)F)cc2Cl)c(F)cc1Cl [F321, Methyl 3-chloro-6-(2-chloro-5-cyano-4-(trifluoromethyl)phenyl)-5-fluoropicolinate]",95 to 100
2,"COC(=O)c1nc(-c2ccc(C(F)(F)F)c(F)c2F)c(F)cc1Cl [F310, Methyl 3-chloro-6-(2,3-difluoro-4-(trifluoromethyl)phenyl)-5-fluoropicolinate]",95 to 100

# Same assay, conditions: post-emergence, 336 h, STEME: common chickweed (Stellaria media), 140 g ai/ha, 14 days after application, read-out: Visual Growth Reduction (%) 14 Days After Application, STEME
row,Structure (SMILES),pest or weed control at 140 g/ha [%]
1,"COC(=O)c1nc(-c2cc(C#N)c(C(F)(F)F)cc2Cl)c(F)cc1Cl [F321, Methyl 3-chloro-6-(2-chloro-5-cyano-4-(trifluoromethyl)phenyl)-5-fluoropicolinate]",0 to 29
2,"COC(=O)c1nc(-c2ccc(C(F)(F)F)c(F)c2F)c(F)cc1Cl [F310, Methyl 3-chloro-6-(2,3-difluoro-4-(trifluoromethyl)phenyl)-5-fluoropicolinate]",0 to 29

# Same assay, conditions: post-emergence, 336 h, TRZAS: wheat, spring (Triticum aestivum), 140 g ai/ha, 14 days after application, read-out: Visual Growth Reduction (%) 14 Days After Application, TRZAS
row,Structure (SMILES),pest or weed control at 140 g/ha [%]
1,"COC(=O)c1nc(-c2cc(C#N)c(C(F)(F)F)cc2Cl)c(F)cc1Cl [F321, Methyl 3-chloro-6-(2-chloro-5-cyano-4-(trifluoromethyl)phenyl)-5-fluoropicolinate]",30 to 44
2,"COC(=O)c1nc(-c2ccc(C(F)(F)F)c(F)c2F)c(F)cc1Cl [F310, Methyl 3-chloro-6-(2,3-difluoro-4-(trifluoromethyl)phenyl)-5-fluoropicolinate]",60 to 74

# Same assay, conditions: post-emergence, 336 h, blackgrass (Alopecurus myosuroides), 14 Days After Application, 140 g ai/ha, read-out: Visual Growth Reduction (%) ALOMY
row,Structure (SMILES),pest or weed control at 140 g/ha [%]
1,"COC(=O)c1nc(-c2cc(C#N)c(C(F)(F)F)cc2Cl)c(F)cc1Cl [F321, Methyl 3-chloro-6-(2-chloro-5-cyano-4-(trifluoromethyl)phenyl)-5-fluoropicolinate]",0 to 29
2,"COC(=O)c1nc(-c2ccc(C(F)(F)F)c(F)c2F)c(F)cc1Cl [F310, Methyl 3-chloro-6-(2,3-difluoro-4-(trifluoromethyl)phenyl)-5-fluoropicolinate]",45 to 59

# Same assay, conditions: post-emergence, 336 h, canada thistle (Cirsium arvense), 14 Days After Application, 140 g ai/ha, read-out: Visual Growth Reduction (%) CIRAR
row,Structure (SMILES),pest or weed control at 140 g/ha [%]
1,"COC(=O)c1nc(-c2cc(C#N)c(C(F)(F)F)cc2Cl)c(F)cc1Cl [F321, Methyl 3-chloro-6-(2-chloro-5-cyano-4-(trifluoromethyl)phenyl)-5-fluoropicolinate]",75 to 84
2,"COC(=O)c1nc(-c2ccc(C(F)(F)F)c(F)c2F)c(F)cc1Cl [F310, Methyl 3-chloro-6-(2,3-difluoro-4-(trifluoromethyl)phenyl)-5-fluoropicolinate]",95 to 100

# Same assay, conditions: post-emergence, 336 h, crabgrass (Digitaria sanguinalis), 14 Days After Application, 140 g ai/ha, read-out: Visual Growth Reduction (%) DIGSA
row,Structure (SMILES),pest or weed control at 140 g/ha [%]
1,"COC(=O)c1nc(-c2cc(C#N)c(C(F)(F)F)cc2Cl)c(F)cc1Cl [F321, Methyl 3-chloro-6-(2-chloro-5-cyano-4-(trifluoromethyl)phenyl)-5-fluoropicolinate]",85 to 94
2,"COC(=O)c1nc(-c2ccc(C(F)(F)F)c(F)c2F)c(F)cc1Cl [F310, Methyl 3-chloro-6-(2,3-difluoro-4-(trifluoromethyl)phenyl)-5-fluoropicolinate]",95 to 100

# Same assay, conditions: post-emergence, 336 h, lambsquarters (Chenopodium album), 14 Days After Application, 140 g ai/ha, read-out: Visual Growth Reduction (%) CHEAL
row,Structure (SMILES),pest or weed control at 140 g/ha [%]
1,"COC(=O)c1nc(-c2cc(C#N)c(C(F)(F)F)cc2Cl)c(F)cc1Cl [F321, Methyl 3-chloro-6-(2-chloro-5-cyano-4-(trifluoromethyl)phenyl)-5-fluoropicolinate]",95 to 100
2,"COC(=O)c1nc(-c2ccc(C(F)(F)F)c(F)c2F)c(F)cc1Cl [F310, Methyl 3-chloro-6-(2,3-difluoro-4-(trifluoromethyl)phenyl)-5-fluoropicolinate]",95 to 100

# Same assay, conditions: post-emergence, 336 h, redroot pigweed (Amaranthus retroflexus), 14 Days After Application, 140 g ai/ha, read-out: Visual Growth Reduction (%) AMARE
row,Structure (SMILES),pest or weed control at 140 g/ha [%]
1,"COC(=O)c1nc(-c2cc(C#N)c(C(F)(F)F)cc2Cl)c(F)cc1Cl [F321, Methyl 3-chloro-6-(2-chloro-5-cyano-4-(trifluoromethyl)phenyl)-5-fluoropicolinate]",30 to 44
2,"COC(=O)c1nc(-c2ccc(C(F)(F)F)c(F)c2F)c(F)cc1Cl [F310, Methyl 3-chloro-6-(2,3-difluoro-4-(trifluoromethyl)phenyl)-5-fluoropicolinate]",95 to 100

# Same assay, conditions: post-emergence, 336 h, wild oat (Avena fatua), 14 Days After Application, 140 g ai/ha, read-out: Visual Growth Reduction (%) AVEFA
row,Structure (SMILES),pest or weed control at 140 g/ha [%]
1,"COC(=O)c1nc(-c2cc(C#N)c(C(F)(F)F)cc2Cl)c(F)cc1Cl [F321, Methyl 3-chloro-6-(2-chloro-5-cyano-4-(trifluoromethyl)phenyl)-5-fluoropicolinate]",75 to 84
2,"COC(=O)c1nc(-c2ccc(C(F)(F)F)c(F)c2F)c(F)cc1Cl [F310, Methyl 3-chloro-6-(2,3-difluoro-4-(trifluoromethyl)phenyl)-5-fluoropicolinate]",60 to 74

# Same assay, conditions: post-emergence, 336 h, yellow nutsedge (Cyperus esculentus), 14 Days After Application, 140 g ai/ha, read-out: Visual Growth Reduction (%) CYPES
row,Structure (SMILES),pest or weed control at 140 g/ha [%]
1,"COC(=O)c1nc(-c2cc(C#N)c(C(F)(F)F)cc2Cl)c(F)cc1Cl [F321, Methyl 3-chloro-6-(2-chloro-5-cyano-4-(trifluoromethyl)phenyl)-5-fluoropicolinate]",0 to 29
2,"COC(=O)c1nc(-c2ccc(C(F)(F)F)c(F)c2F)c(F)cc1Cl [F310, Methyl 3-chloro-6-(2,3-difluoro-4-(trifluoromethyl)phenyl)-5-fluoropicolinate]",75 to 84
